Measurements published in the supplement of paper PMC4862054.

Assays:
Assay in all cases: normalised response (% of control), CellTiter-Glo; higher = more viable cells (100 = DMSO, 0 = benzethonium chloride kill control)
Conditions in all cases: incubation time: 72 h
[1] = test system: HCC1599
Procedure: (§1)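 DSRT, 72 h incubation, CellTox Green / CellTiter-Glo readout. Signal is normalised to DMSO and benzethonium chloride controls. Value is the normalised response at the highest dose.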

[2] = test system: MDA-MB-231
Procedure: as §1

[3] = test system: BT-474
Procedure: as §1

[4] = test system: MDA-MB-453
Procedure: as §1

[5] = test system: HDQ-P1
Procedure: as §1

[6] = test system: Hs578T
Procedure: as §1

[7] = test system: DU-4475
Procedure: as §1

[8] = test system: MFM-223
Procedure: as §1

[9] = test system: MDA-MB-468
Procedure: as §1

[10] = test system: HCC1937
Procedure: as §1

[11] = test system: MCF-10A
Procedure: as §1

[12] = test system: CAL-120
Procedure: as §1

[13] = test system: SK-BR-3
Procedure: as §1

[14] = test system: HCC1143
Procedure: as §1

[15] = test system: CAL-85-1
Procedure: as §1

[16] = test system: CAL-51
Procedure: as §1

[17] = test system: BT-549
Procedure: as §1

[18] = test system: CAL-148
Procedure: as §1

[19] = test system: MDA-MB-436
Procedure: as §1

Row | SMILES | normalised response [1] | normalised response [2] | normalised response [3] | normalised response [4] | normalised response [5] | normalised response [6] | normalised response [7] | normalised response [8] | normalised response [9] | normalised response [10] | normalised response [11] | normalised response [12] | normalised response [13] | normalised response [14] | normalised response [15] | normalised response [16] | normalised response [17] | normalised response [18] | normalised response [19]
1 | N#Cc1ccc(COC[C@H]2O[C@@H](n3c(NCc4ccc(Cl)c(Cl)c4)nc4c(N)ncnc43)[C@H](O)[C@@H]2O)cc1 (10000 nM) | 65.7% | 74.5% | 68.2% | 75% | 69.6% | 78.2% | 65.6% | 74.3% | 72.5% | 51.6% | 59.2% | 83.7% | 47.4% | 66.2% | 86.3% | 88% | 61.8% | 83.7% | 85.1%
2 | COc1cc(OC2CCN(C)CC2)ccc1Nc1ncc2c(n1)n(C1CCCC1)c(=O)n2C [AZ 3146] (10000 nM) | 37.8% | 62.3% | 59.9% | 95.7% | 70.6% | 63% | 79.1% | 72.1% | 28.6% | 70.3% | 47.8% | 81% | 52.4% | 70.4% | 51.7% | 48.9% | 64.3% | 58.7% | 79.3%
3 | CN(C)c1nc(N(C)C)nc(N(C)C)n1 [Altretamine] (10000 nM) | 112% | 102% | 98.7% | 108% | 97.8% | 105% | 107% | 106% | 104% | 100% | 107% | 100% | 108% | 100% | 108% | 109% | 102% | 106% | 107%
4 | O=C(/C=C/c1cccc(S(=O)(=O)Nc2ccccc2)c1)NO [Belinostat] (10000 nM) | 5.36% | 2.16% | 5.7% | 2.73% | 30.4% | 7.71% | 5.73% | 26.1% | 8.88% | 20.5% | 16.1% | 7.76% | 0% | 12.4% | 6.45% | 44.5% | 17.8% | -0.03% | 29.3%
5 | O=P1(N(CCCl)CCCl)NCCCO1 (stereo not given) [Cyclophosphamide] (40000 nM) | 92.9% | 99.9% | 92.8% | 101% | 96.8% | 106% | 102% | 108% | 93.2% | 95.8% | 109% | 94.4% | 108% | 105% | 98.8% | 131% | 100% | 101% | 96.3%
6 | C=C1C[C@@H]2[C@H](CC[C@]3(C)C(=O)CC[C@@H]23)[C@@]2(C)C=CC(=O)C=C12 [Exemestane] (10000 nM) | 107% | 104% | 108% | 95.7% | 92.3% | 102% | 108% | 94.5% | 76.3% | 89.5% | 107% | 101% | 89.3% | 94.1% | 97.7% | 81.7% | 94.5% | 112% | 88%
7 | COc1cc2ncnc(Nc3ccc(F)c(Cl)c3)c2cc1OCCCN1CCOCC1 [Gefitinib] (10000 nM) | 81.9% | 70.5% | 69.8% | 60.3% | 56% | 97% | 104% | 75% | 38.1% | 60.9% | 26.1% | 83.6% | 27.1% | 77% | 34.7% | 100% | 73.6% | 69.7% | 74.1%
8 | O=C(Nc1ccncc1)C(=O)c1cn(Cc2ccc(Cl)cc2)c2ccccc12 [Indibulin] (10000 nM) | 73.1% | 53.8% | 73.5% | 66.9% | 72% | 51.4% | 79% | 62.5% | 37% | 69% | 76.1% | 60.7% | 27% | 47.9% | 43% | 18.4% | 39.2% | 103% | 44.7%
9 | NC(=O)c1ccc(I)c([N+](=O)[O-])c1 [Iniparib] (10000 nM) | 88% | 93.9% | 91% | 73.2% | 96.3% | 95.5% | 90.2% | 80% | 79% | 86.9% | 76.3% | 98.2% | 71.1% | 92.1% | 116% | 84.7% | 96.5% | 88.8% | 73.3%
10 | CCc1c2c(nc3ccc(OC(=O)N4CCC(N5CCCCC5)CC4)cc13)-c1cc3c(c(=O)n1C2)COC(=O)[C@]3(O)CC [Irinotecan] (10000 nM) | 29.8% | 84.8% | 69.5% | 102% | 73.3% | 86.9% | 41.8% | 96.5% | 23.2% | 70.9% | 68.2% | 70% | 47.4% | 60.1% | 63.6% | 34.8% | 49.1% | 26.4% | 36.8%
11 | Oc1ccc2c(c1)CC[C@H](c1ccccc1)[C@@H]2c1ccc(OCCN2CCCC2)cc1 [Lasofoxifene] (1000 nM) | 99.2% | 102% | 103% | 88.7% | 94.1% | 107% | 96.2% | 102% | 99.7% | 99.3% | 117% | 114% | 105% | 97.7% | 100% | 78.9% | 95.2% | 122% | 110%
12 | Cc1ccc(NC(=O)c2ccc(CN3CCN(C)CC3)cc2)cc1Nc1nc(-c2cccnc2)cs1 [Masitinib] (10000 nM) | 49.6% | 51.5% | 33.2% | 55.6% | 75.5% | 96.6% | 99.4% | 73% | 36.6% | 65% | 91.6% | 80.8% | 31.8% | 80.5% | 64.4% | 59.1% | 59.5% | 97.7% | 51.7%
13 | O=C(Nc1cccnc1)N1CCC(Cc2cccc(Oc3ccc(C(F)(F)F)cn3)c2)CC1 [PF-3845] (10000 nM) | 46.2% | 89.1% | 93.3% | 74.7% | 95.2% | 92.1% | 85% | 75.7% | 49.1% | 75.3% | 93.4% | 86% | 57.1% | 86.1% | 89.7% | 44.6% | 71.7% | 88.4% | 72.6%
14 | Cc1[nH]c2ccccc2c1CCNCc1ccc(/C=C/C(=O)NO)cc1 [Panobinostat] (1000 nM) | 6.35% | 6.11% | 7.51% | 2.01% | 26.4% | 5.17% | 13.9% | 29.4% | 7.12% | 20.7% | 11% | 9.89% | 0.27% | 13.4% | 3.87% | 8.29% | 14.4% | 0.3% | 30.2%
15 | COCC1(CO)C(=O)C2CCN1CC2 (stereo not given) [Prima-1 Met] (10000 nM) | 108% | 97.6% | 97.1% | 93.1% | 96.7% | 97.4% | 106% | 103% | 91.3% | 101% | 106% | 100% | 106% | 98% | 102% | 130% | 53.3% | 110% | 97.7%
16 | CNC(=O)c1cc(Oc2ccc(NC(=O)Nc3ccc(Cl)c(C(F)(F)F)c3)c(F)c2)ccn1 [Regorafenib] (10000 nM) | 36.5% | 61.2% | 50% | 59.1% | 57.4% | 47% | 58.2% | 35.9% | 29.8% | 50.1% | 46.2% | 49.8% | 51.7% | 77.8% | 89.3% | 73.8% | 43.7% | 66.7% | 46.9%
17 | c1ccc2c(CCNc3ccc(Nc4ccncc4)cc3)c[nH]c2c1 [Serdemetan] (10000 nM) | 14.4% | 41% | 51.8% | 42.3% | 73.6% | 48.1% | 0.28% | 58% | 9.51% | 49.7% | 52.6% | 67.3% | 15.5% | 52.9% | 39.1% | 9.77% | 23.6% | 21.3% | 44.8%
18 | CN(C)CCOc1ccc(/C(=C(/CCCl)c2ccccc2)c2ccccc2)cc1 [Toremifene] (10000 nM) | 77.9% | 65.9% | 68.5% | 63.8% | 87.7% | 82.1% | 88% | 48.4% | 75.5% | 49.1% | 63.5% | 90.7% | 67.1% | 96.8% | 85.2% | 98.3% | 81.8% | 86.7% | 83.7%
19 | CC(C)C[C@@H](C(=O)N[C@H](C(=O)OC1CCCC1)c1ccccc1)[C@H](O)C(=O)NO [Tosedostat] (10000 nM) | 89% | 35.7% | 24.8% | 47.6% | 59.9% | 63.1% | 87.6% | 55.9% | 24.6% | 60.4% | 76.5% | 47.9% | 74% | 55.1% | 36.6% | 71.9% | 42.7% | 67.1% | 64.5%
20 | COCC[n+]1c2c(n(Cc3cnccn3)c1C)C(=O)c1ccccc1C2=O [YM155] (10000 nM) | -0.77% | -0.19% | 1.71% | -0.58% | 1.64% | -0.62% | -0.36% | 5.6% | -0.19% | 0.28% | -0.72% | -0.38% | -0.43% | -0.39% | -0.28% | -0.12% | -0.36% | -0.38% | -0.62%
